Experiment [1] addresses T1, recombinant human KDM4A (Homo sapiens, UniProt O75164).
T1 construct: made in house
T1 sequence (O75164 1-359 limits assumed): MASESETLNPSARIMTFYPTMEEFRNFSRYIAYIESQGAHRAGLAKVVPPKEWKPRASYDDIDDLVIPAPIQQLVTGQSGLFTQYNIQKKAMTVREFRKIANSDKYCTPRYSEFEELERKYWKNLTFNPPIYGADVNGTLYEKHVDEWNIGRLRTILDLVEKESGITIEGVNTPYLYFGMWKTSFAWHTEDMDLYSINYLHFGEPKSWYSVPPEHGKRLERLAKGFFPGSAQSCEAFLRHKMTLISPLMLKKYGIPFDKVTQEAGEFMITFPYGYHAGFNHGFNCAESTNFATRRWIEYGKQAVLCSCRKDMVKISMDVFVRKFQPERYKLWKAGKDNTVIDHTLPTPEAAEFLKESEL
Description: 14CO2 capture enzymatic assay (decarboxylation of [1-14C] αKG), KDM4A. Type of experiment: biochemical. To be noted: 10 μM [1-14C] αKG, 90 μM non-labeled αKG, 50 μM peptide substrate, 37° C., 1 hour, final 1% DMSO. How it is done:
(§1) Enzymatic activity was determined based on the capture of ^14CO2 released by the decarboxylation of [1-^14C] αKG (Zhang et al., Anal. Biochem., 1998, vol. 271, pp. 137-142). [1-^14C]alphaketoglutarate (αKG) was from Perkin-Elmer, H3K4me3 and H3K9me3 peptides were from Mimotopes. All other reagents were from Sigma. Reaction mixtures included the following components: Fe(SO4), [1-^14C] αKG, non-labeled αKG, ascorbate, peptide-substrate (H3K4me3: H-ARTK(me3)QTARKSTGGKAPRKQLA-OH. H3K9me3: H-ARTKQTARK(me3)STGGKAPRKQLA-OH), NaCl, Tween-20 and catalase in 25 mM HEPES buffer, pH 7.4. The enzymatic reactions were initiated by addition of recombinant human KDM5B or KDM4A enzyme (truncated enzyme produced in house by method and using sequence disclosed in Ng et al, Nature 448:87-91, 2007). The reactions were performed in 96-well microtiter plates (20 μL total assay volume) (Greiner #650201). ^14CO2 was captured on a glass fiber filter paper (Cat. No. IH-201-A, Inotech Biosystems International) soaked with saturated Ba(OH)2 that was laid on top of the 96-well plate. A microtiter plate sealer film (Thermal Seal cat #T7961100) was applied to the filter paper. The plate and filter paper were sandwiched between two custom made aluminum plates (Advanced Component Manufacturing, Burlingame, CA) and transferred to a 37° C. oven and allowed to incubate for 1 hour. After incubation, the filter paper was dried in a 103° C. oven for 40-60 minutes. To determine percent turnover, aliquots of the reaction mixture were spotted onto the filter paper and the filter paper was dried again. The dry filter paper was exposed to a storage phosphor screen for 24-72 hours and the images recorded using a Typhoon FLA 7000 Imager (Amersham Biosciences, Piscataway, NJ). Integrated spot intensities corresponding to control reactions lacking the enzyme were subtracted from integration results for enzyme containing reactions and data were converted to enzyme dependent percent ^14CO2 release. All enzymatic reactions were run in duplicates.
(§2) For IC50 determination, a 3-fold dilution series of compound was prepared and added to the reaction mixture (final 1% DMSO, v/v) prior to enzyme addition. The final reagent concentrations were: 10 μM Fe(SO4), 10 μM [1-^14C] αKG, 90 μM non-labeled αKG, 2 mM ascorbate, 50 μM peptide substrate, 75 mM NaCl, 0.01% Tween-20 and ˜2 units/μL catalase. IC50s were determined by non-linear fitting using Grafit version 7.0.

The target of experiment [2] is T2, recombinant human KDM5B (Homo sapiens, UniProt Q9UGL1).
T2 sequence (Q9UGL1 374-755 limits assumed): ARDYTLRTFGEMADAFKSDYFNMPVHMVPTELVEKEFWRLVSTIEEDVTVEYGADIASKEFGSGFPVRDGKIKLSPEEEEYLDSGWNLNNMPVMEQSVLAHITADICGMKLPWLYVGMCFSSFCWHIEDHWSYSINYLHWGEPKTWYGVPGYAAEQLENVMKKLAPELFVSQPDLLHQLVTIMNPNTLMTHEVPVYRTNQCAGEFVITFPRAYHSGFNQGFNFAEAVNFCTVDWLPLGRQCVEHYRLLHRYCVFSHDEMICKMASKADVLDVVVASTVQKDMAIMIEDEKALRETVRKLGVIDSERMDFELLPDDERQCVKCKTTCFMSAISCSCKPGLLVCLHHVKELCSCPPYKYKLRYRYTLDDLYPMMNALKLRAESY
Description: 14CO2 capture enzymatic assay (decarboxylation of [1-14C] αKG), KDM5B. Type of experiment: biochemical. To be noted: 10 μM [1-14C] αKG, 90 μM non-labeled αKG, 50 μM peptide substrate, 37° C., 1 hour, final 1% DMSO. How it is done:
as §1, §2

What is called IC50 is the concentration at which inhibition is half-maximal. Consider `N#Cc1cc(Cc2ccccc2-c2ccccc2)nc(C(=O)CCC(=O)O)c1O` [Example 52, 4-(6-Biphenyl-2-ylmethyl-4-cyano-3-hydroxy-pyridin-2-yl)-4-oxo-butyric acid], for which the IC50 was more than 40000 nM in experiment [1] and 300 nM in experiment [2].
In the case of `N#Cc1cc(Cc2c(Cl)cccc2Cl)nc(C(=O)CCC(=O)O)c1O` [Example 32, 4-[4-Cyano-6-(2,6-dichloro-benzyl)-3-hydroxy-pyridin-2-yl]-4-oxo-butyric acid], the IC50 in experiment [1] is 12000 nM; in experiment [2], 240 nM.
`N#Cc1nc(Cc2ccccc2)cc(C(=O)CCC(=O)O)c1O` [Example 160, 4-(6-Benzyl-2-cyano-3-hydroxy-pyridin-4-yl)-4-oxo-butyric acid]: the 50% inhibitory concentration (IC50) in experiment [1] was more than 40000 nM; in experiment [2], 2000 nM.
For `N#Cc1cc(CCc2ccccc2)nc(C(=O)CCC(=O)O)c1O` [Example 15, 4-(4-Cyano-3-hydroxy-6-phenethyl-pyridin-2-yl)-4-oxo-butyric acid] the same measures were more than 40000 nM and 390 nM.
With `Cc1ccc(Cl)c(Cc2cc(C#N)c(O)c(C(=O)CCC(=O)O)n2)c1Cl` [Example 155, 4-[4-Cyano-6-(2,6-dichloro-3-methyl-benzyl)-3-hydroxy-pyridin-2-yl]-4-oxo-butyric acid], the IC50 was found to be 34000 nM in experiment [1] and 180 nM in experiment [2].
With `Cc1ccc(Cc2cc(C#N)c(O)c(C(=O)CCC(=O)O)n2)cc1` [Example 38, 4-[4-Cyano-3-hydroxy-6-(4-methyl-benzyl)-pyridin-2-yl]-4-oxo-butyric acid], the half-maximal inhibitory concentration (IC50) in experiment [1] was more than 40000 nM; in experiment [2], 120 nM.
For `N#Cc1cc(Oc2ccccc2)cc(C(=O)CCC(=O)O)c1O` [Example 132, 4-(3-Cyano-2-hydroxy-5-phenoxy-phenyl)-4-oxo-butyric acid], in that order: more than 40000 nM and 310 nM.
As for `N#Cc1nc(-c2ccccc2)cc(C(=O)CCC(=O)O)c1O` [Example 157, 4-(2-Cyano-3-hydroxy-6-phenyl-pyridin-4-yl)-4-oxo-butyric acid], the IC50 in experiment [1] is more than 40000 nM; in experiment [2], 1400 nM.
With `COc1ccc(-c2cc(C#N)c(O)c(C(=O)CCC(=O)O)n2)c(Cl)c1` [Example 81, 4-[6-(2-Chloro-4-methoxy-phenyl)-4-cyano-3-hydroxy-pyridin-2-yl]-4-oxo-butyric acid], the 50% inhibitory concentration (IC50) in experiment [1] was more than 40000 nM; in experiment [2] it was 340 nM.
For `N#Cc1cc(Cc2c(Cl)cccc2C#N)nc(C(=O)CCC(=O)O)c1O` [Example 58, 4-[6-(2-Chloro-6-cyano-benzyl)-4-cyano-3-hydroxy-pyridin-2-yl]-4-oxo-butyric acid], the results for the half-inhibitory concentration (IC50) in experiment [1] and in experiment [2] were 16000 nM and 180 nM, respectively.
`N#Cc1cc(Oc2ccc(Cl)cc2)cc(C(=O)CCC(=O)O)c1O` [Example 137, 4-[5-(4-Chloro-phenoxy)-3-cyano-2-hydroxy-phenyl]-4-oxo-butyric acid]: the half-maximal inhibitory concentration (IC50) in experiment [1] was more than 40000 nM; in experiment [2] it was 820 nM.
Regarding `N#Cc1cc(-c2cccc(C(F)(F)F)c2Cl)nc(C(=O)CCC(=O)O)c1O` [Example 103, 4-[6-(2-Chloro-3-trifluoromethyl-phenyl)-4-cyano-3-hydroxy-pyridin-2-yl]-4-oxo-butyric acid], the IC50 was more than 40000 nM in experiment [1] and 380 nM in experiment [2].
Regarding `N#Cc1cc(Cc2ccc(Cl)cc2)nc(C(=O)CCC(=O)O)c1O` [Example 17, 4-[6-(4-Chloro-benzyl)-4-cyano-3-hydroxy-pyridin-2-yl]-4-oxo-butyric acid], the IC50 is more than 40000 nM in experiment [1] and 190 nM in experiment [2].
Take `Cc1cccc(C)c1Cc1cc(C#N)c(O)c(C(=O)CCC(=O)O)c1` [Example 122, 4-[3-Cyano-5-(2,6-dimethyl-benzyl)-2-hydroxy-phenyl]-4-oxo-butyric acid]: the results for the 50% inhibitory concentration (IC50) in experiment [1] and in experiment [2] were more than 40000 nM and 230 nM, respectively.
For the compound `N#Cc1ccc(C(F)(F)F)cc1-c1cc(C#N)c(O)c(C(=O)CCC(=O)O)n1` [Example 105, 4-[4-Cyano-6-(2-cyano-5-trifluoromethyl-phenyl)-3-hydroxy-pyridin-2-yl]-4-oxo-butyric acid], the results for the half-inhibitory concentration (IC50) in experiment [1] and in experiment [2] were more than 40000 nM and 420 nM, respectively.
As for `Cc1ccc(F)cc1-c1cc(C#N)c(O)c(C(=O)CCC(=O)O)n1` [Example 82, 4-[4-Cyano-6-(5-fluoro-2-methyl-phenyl)-3-hydroxy-pyridin-2-yl]-4-oxo-butyric acid], the IC50 in experiment [1] was more than 40000 nM; in experiment [2], 350 nM.
`Cc1cccc(F)c1Cc1cc(C#N)c(O)c(C(=O)CCC(=O)O)n1` [Example 148, 4-[4-Cyano-6-(2-fluoro-6-methyl-benzyl)-3-hydroxy-pyridin-2-yl]-4-oxo-butyric acid]: the IC50 in experiment [1] was 4300 nM; in experiment [2] it was 300 nM.
On to `Cc1ccc(C(F)(F)F)cc1-c1cc(C#N)c(O)c(C(=O)CCC(=O)O)n1` [Example 97, 4-[4-Cyano-3-hydroxy-6-(2-methyl-5-trifluoromethyl-phenyl)-pyridin-2-yl]-4-oxo-butyric acid], for which the IC50 in experiment [1] is more than 40000 nM; in experiment [2], 300 nM.
`N#Cc1cc(CC2CCCCC2)nc(C(=O)CCC(=O)O)c1O` [Example 33, 4-(4-Cyano-6-cyclohexylmethyl-3-hydroxy-pyridin-2-yl)-4-oxo-butyric acid]: the IC50 in experiment [1] was more than 40000 nM; in experiment [2], 420 nM.
In the case of `N#Cc1cc(Cc2c(Cl)cc(Cl)cc2Cl)cc(C(=O)CCC(=O)O)c1O` [Example 131, 4-[3-Cyano-2-hydroxy-5-(2,4,6-trichloro-benzyl)-phenyl]-4-oxo-butyric acid], the figures for the IC50 in experiment [1] and in experiment [2] were more than 40000 nM and 50 nM, respectively.
For `N#Cc1cc(-c2cccc3cccnc23)nc(C(=O)CCC(=O)O)c1O` [Example 116, 4-(4-Cyano-3-hydroxy-6-quinolin-8-yl-pyridin-2-yl)-4-oxo-butyric acid], the IC50 in experiment [1] was more than 40000 nM; in experiment [2] it was 100 nM.
As to `N#Cc1cc(Cc2ccccc2Cl)nc(C(=O)CCC(=O)O)c1O` [Example 21, 4-[6-(2-Chloro-benzyl)-4-cyano-3-hydroxy-pyridin-2-yl]-4-oxo-butyric acid], the half-inhibitory concentration (IC50) came out at 29000 nM in experiment [1] and 210 nM in experiment [2].
Turning to `Cc1cc(C#N)cc(C)c1Cc1cc(C#N)c(O)c(C(=O)CCC(=O)O)n1` [Example 153, 4-[4-Cyano-6-(4-cyano-2,6-dimethyl-benzyl)-3-hydroxy-pyridin-2-yl]-4-oxo-butyric acid], the IC50 in experiment [1] was 17000 nM; in experiment [2], 320 nM.
For `N#Cc1cc(Cc2ccccc2OC(F)(F)F)nc(C(=O)CCC(=O)O)c1O` [Example 49, 4-[4-Cyano-3-hydroxy-6-(2-trifluoromethoxy-benzyl)-pyridin-2-yl]-4-oxo-butyric acid] the same measures were more than 40000 nM and 270 nM.
For the compound `N#Cc1cc(C(F)(F)F)c(O)c(C(=O)CCC(=O)O)n1` [Example 8, 4-(6-Cyano-3-hydroxy-4-trifluoromethyl-pyridin-2-yl)-4-oxo-butyric acid], the IC50 in experiment [1] was 13000 nM; in experiment [2], 270 nM.

Source of the values: patent US20240002344A1, “COMPOUNDS, COMPOSITIONS AND METHODS FOR HISTONE LYSINE DEMETHYLASE INHIBITION” (FibroGen, Inc., priority 2020, published 2024).
